This passage reports IC50 results from patent publication US11661403B2, “Oxadiazole compounds” (Vivace Therapeutics, Inc., priority 2018, dated 2023).

For the first assay, the system named is 8XTBD luciferase reporter (YAP) in HEK293T cells. Briefly: YAP Reporter Assay. The note with it: Homo sapiens, HEK-293T; HEK293T cells stably transfected with 8XTBD luciferase reporter and pRLTK; 24-hr incubation; top concentration 3 μM; read-out: Firefly Luciferase IC50. The class given is cell-based. A general note: In a reporter assay the amount or activity of a reporter protein is the signal.
Take `CCOC(=O)Cc1nnc(-c2ccccc2Nc2ccc(C(F)(F)F)cc2)o1` [Compound 1, ethyl 2-(5-(2-((4-(trifluoromethyl)phenyl)amino)phenyl)-1,3,4-oxadiazol-2-yl) acetate]: the IC50 (commonly the midpoint of a concentration-inhibition curve) fell in the range of 100 to 1000 nM.

In the case of `OCCc1nnc(-c2ccccc2Nc2ccc(C(F)(F)F)cc2)o1` [Compound 2, 2-(5-(2-((4-(trifluoromethyl)phenyl)amino)phenyl)-1,3,4-oxadiazol-2-yl)ethan-1-ol], the IC50 is < 100 nM. With `CCOC(=O)c1nnc(-c2ccccc2Nc2ccc(C(F)(F)F)cc2)o1` [Compound 3, ethyl 5-(2-((4-(trifluoromethyl)phenyl)amino)phenyl)-1,3,4-oxadiazole-2-carboxylate], the half-inhibitory concentration (IC50) was < 100 nM. Consider `Nc1nnc(-c2ccccc2Nc2ccc(C(F)(F)F)cc2)o1` [Compound 4, 5-(2-((4-(trifluoromethyl)phenyl)amino)phenyl)-1,3,4-oxadiazol-2-amine], for which the IC50 was in the range of 100 to 1000 nM. For `OCc1nnc(-c2ccccc2Nc2ccc(C(F)(F)F)cc2)o1` [Compound 5, (5-(2-((4-(trifluoromethyl)phenyl)amino)phenyl)-1,3,4-oxadiazol-2-yl)methanol], the IC50 was < 100 nM. Still for that read-out and setting: for `CN(C)c1nnc(-c2ccccc2Nc2ccc(C(F)(F)F)cc2)o1` [Compound 6, N,N-dimethyl-5-(2-((4-(trifluoromethyl)phenyl)amino)phenyl)-1,3,4-oxadiazol-2-amine] the value was 1000 to 5000 nM; for `COC(=O)c1nnc(-c2ccccc2Nc2ccc(C(F)(F)F)cc2)o1` [Compound 8, methyl 5-(2-((4-(trifluoromethyl)phenyl)amino)phenyl)-1,3,4-oxadiazole-2-carboxylate], 100 to 1000 nM; for `CCOC(=O)CNc1nnc(-c2ccccc2Nc2ccc(C(F)(F)F)cc2)o1` [Compound 9, ethyl (5-(2-((4-(trifluoromethyl)phenyl)amino)phenyl)-1,3,4-oxadiazol-2-yl)glycinate], 1000 to 5000 nM.

Regarding `OCCNc1nnc(-c2ccccc2Nc2ccc(C(F)(F)F)cc2)o1` [Compound 10, 2-((5-(2-((4-(trifluoromethyl)phenyl)amino)phenyl)-1,3,4-oxadiazol-2-yl)amino)ethan-1-ol], the IC50 lay within 100 to 1000 nM. On the same count and under the same terms, for `CCOC(=O)CN(C)c1nnc(-c2ccccc2Nc2ccc(C(F)(F)F)cc2)o1` [Compound 11, ethyl N-methyl-N-(5-(2-((4-(trifluoromethyl)phenyl)amino)phenyl)-1,3,4-oxadiazol-2-yl)glycinate] the value was 100 to 1000 nM. On the same count and under the same terms, for `CNc1nnc(-c2ccccc2Nc2ccc(C(F)(F)F)cc2)o1` [Compound 12, N-methyl-5-(2-((4-(trifluoromethyl)phenyl)amino)phenyl)-1,3,4-oxadiazol-2-amine] the value was 100 to 1000 nM; for `O=C1NCC(c2nnc(-c3ccccc3Nc3ccc(C(F)(F)F)cc3)o2)O1` (stereo not drawn) [Compound 13, 5-(5-(2-((4-(trifluoromethyl)phenyl)amino)phenyl)-1,3,4-oxadiazol-2-yl)oxazolidin-2-one], 100 to 1000 nM. On to `O=C(NO)c1nnc(-c2ccccc2Nc2ccc(C(F)(F)F)cc2)o1` [Compound 14, N-hydroxy-5-(2-((4-(trifluoromethyl)phenyl)amino)phenyl)-1,3,4-oxadiazole-2-carboxamide], for which the IC50 was < 100 nM.

Regarding `NC(=O)c1nnc(-c2ccccc2Nc2ccc(C(F)(F)F)cc2)o1` [Compound 15, 5-(2-((4-(trifluoromethyl)phenyl)amino)phenyl)-1,3,4-oxadiazole-2-carboxamide], the IC50 is < 100 nM.

On to `Cc1ccc(S(=O)(=O)N2C(=O)OCC2c2nnc(-c3ccccc3Nc3ccc(C(F)(F)F)cc3)o2)cc1` (stereo not drawn) [Compound 16, 3-tosyl-4-(5-(2-((4-(trifluoromethyl)phenyl)amino)phenyl)-1,3,4-oxadiazol-2-yl)oxazolidin-2-one], for which the IC50 was 100 to 1000 nM. Same read-out and setting: for `O=C1NC(c2nnc(-c3ccccc3Nc3ccc(C(F)(F)F)cc3)o2)CO1` (stereo not drawn) [Compound 17, 4-(5-(2-((4-(trifluoromethyl)phenyl)amino)phenyl)-1,3,4-oxadiazol-2-yl)oxazolidin-2-one] the value was < 100 nM; for `CN(CCO)c1nnc(-c2ccccc2Nc2ccc(C(F)(F)F)cc2)o1` [Compound 19, 2-(methyl(5-(2-((4-(trifluoromethyl)phenyl)amino)phenyl)-1,3,4-oxadiazol-2-yl)amino)ethan-1-ol], 100 to 1000 nM. On the same count and under the same terms, for `FC(F)(F)c1ccc(Nc2ccccc2-c2nnco2)cc1` [Compound 20, 2-(1,3,4-oxadiazol-2-yl)-N-[4-(trifluoromethyl)phenyl]aniline] the value was 100 to 1000 nM; for `N#Cc1nnc(-c2ccccc2Nc2ccc(C(F)(F)F)cc2)o1` [Compound 22, 5-[2-[4-(trifluoromethyl)anilino]phenyl]-1,3,4-oxadiazole-2-carbonitrile], < 100 nM. Same read-out and setting: for `NC(=O)CNc1nnc(-c2ccccc2Nc2ccc(C(F)(F)F)cc2)o1` [Compound 24, 2-((5-(2-((4-(trifluoromethyl)phenyl)amino)phenyl)-1,3,4-oxadiazol-2-yl)amino)acetamide] the value was 100 to 1000 nM.

In the case of `OCC(O)c1nnc(-c2ccccc2Nc2ccc(C(F)(F)F)cc2)o1` (stereo not drawn) [Compound 25, 1-[5-[2-[4-(trifluoromethyl)anilino]phenyl]-1,3,4-oxadiazol-2-yl]ethane-1,2-diol], the IC50 is < 100 nM.

Regarding `CC(C)(C)OC(=O)N1C(=O)OCC1c1nnc(-c2ccccc2Nc2ccc(C(F)(F)F)cc2)o1` (stereo not drawn) [Compound 26], the IC50 is < 100 nM.

Consider `NCc1nnc(-c2ccccc2Nc2ccc(C(F)(F)F)cc2)o1` [Compound 28, 2-[5-(aminomethyl)-1,3,4-oxadiazol-2-yl]-N-[4-(trifluoromethyl)phenyl]aniline], for which the concentration for half-maximal inhibition (IC50) lay within 100 to 1000 nM.

Regarding `O=C1OCC(c2nnc(-c3ccccc3Nc3ccc(C(F)(F)F)cc3)o2)O1` (stereo not drawn) [Compound 29, 4-[5-[2-[4-(trifluoromethyl)anilino]phenyl]-1,3,4-oxadiazol-2-yl]-1,3-dioxolan-2-one], the IC50 is < 100 nM. The same measure, in the same setting: for `NC(CO)c1nnc(-c2ccccc2Nc2ccc(C(F)(F)F)cc2)o1` (stereo not drawn) [Compound 30, 2-amino-2-(5-(2-((4-(trifluoromethyl)phenyl)amino)phenyl)-1,3,4-oxadiazol-2-yl)ethanol] the value was 100 to 1000 nM; for `[N-]=[N+]=NCc1nnc(-c2ccccc2Nc2ccc(C(F)(F)F)cc2)o1` [Compound 31, 2-[5-(azidomethyl)-1,3,4-oxadiazol-2-yl]-N-[4-(trifluoromethyl)phenyl]aniline], 100 to 1000 nM; for `CS(=O)(=O)N(CCO)c1nnc(-c2ccccc2Nc2ccc(C(F)(F)F)cc2)o1` [Compound 32, N-(2-hydroxyethyl)-N-(5-(2-((4-(trifluoromethyl)phenyl)amino)phenyl)-1,3,4-oxadiazol-2-yl)methanesulfonamide], 100 to 1000 nM. Still for that read-out and setting: for `O=C1NCCN1c1nnc(-c2ccccc2Nc2ccc(C(F)(F)F)cc2)o1` [Compound 34, 1-(5-(2-((4-(trifluoromethyl)phenyl)amino)phenyl)-1,3,4-oxadiazol-2-yl)imidazolidin-2-one] the value was 100 to 1000 nM. With `Cc1ocnc1-c1nnc(-c2ccccc2Nc2ccc(C(F)(F)F)cc2)o1` [Compound 35, 2-(5-(5-methyloxazol-4-yl)-1,3,4-oxadiazol-2-yl)-N-(4-(trifluoromethyl)phenyl) aniline], the IC50 fell in the range of 100 to 1000 nM. Same read-out and setting: for `FC(F)(F)c1ccc(Nc2ccccc2-c2nnc(-c3cocn3)o2)cc1` [Compound 36, 2-(5-(oxazol-4-yl)-1,3,4-oxadiazol-2-yl)-N-(4-(trifluoromethyl)phenyl)aniline] the value was 100 to 1000 nM; for `FC(F)(F)c1ccc(Nc2ccccc2-c2nnc(-c3cnco3)o2)cc1` [Compound 37, 2-(5-(oxazol-5-yl)-1,3,4-oxadiazol-2-yl)-N-(4-(trifluoromethyl)phenyl)aniline], 100 to 1000 nM.

With `Cc1oncc1-c1nnc(-c2ccccc2Nc2ccc(C(F)(F)F)cc2)o1` [Compound 40, 2-(5-(5-methylisoxazol-4-yl)-1,3,4-oxadiazol-2-yl)-N-(4-(trifluoromethyl)phenyl) aniline], the IC50 was in the range of 100 to 1000 nM. The same measure, in the same setting: for `CC(O)c1nnc(-c2ccccc2Nc2ccc(C(F)(F)F)cc2)o1` (stereo not drawn) [Compound 41, 1-(5-(2-((4-(trifluoromethyl)phenyl)amino)phenyl)-1,3,4-oxadiazol-2-yl)ethanol] the value was < 100 nM; for `CC(C)(O)c1nnc(-c2ccccc2Nc2ccc(C(F)(F)F)cc2)o1` [Compound 42, 2-(5-(2-((4-(trifluoromethyl)phenyl)amino)phenyl)-1,3,4-oxadiazol-2-yl)propan-2-ol], < 100 nM.

As to `OC1(c2nnc(-c3ccccc3Nc3ccc(C(F)(F)F)cc3)o2)CC1` [Compound 44, 1-(5-(2-((4-(trifluoromethyl)phenyl)amino)phenyl)-1,3,4-oxadiazol-2-yl)cyclopropanol], the IC50 was < 100 nM. The same measure, in the same setting: for `CC(C)(CO)c1nnc(-c2ccccc2Nc2ccc(C(F)(F)F)cc2)o1` [Compound 45, 2-methyl-2-(5-(2-((4-(trifluoromethyl)phenyl)amino)phenyl)-1,3,4-oxadiazol-2-yl)propan-1-ol] the value was < 100 nM; for `Cc1ccc(S(=O)(=O)OC(c2nnc(-c3ccccc3Nc3ccc(C(F)(F)F)cc3)o2)C(F)(F)F)cc1` (stereo not drawn) [Compound 46, 2,2,2-trifluoro-1-(5-(2-((4-(trifluoromethyl)phenyl)amino)phenyl)-1,3,4-oxadiazol-2-yl)ethyl 4-methylbenzenesulfonate], 100 to 1000 nM; for `OCC1(c2nnc(-c3ccccc3Nc3ccc(C(F)(F)F)cc3)o2)CC1` [Compound 47, (1-(5-(2-((4-(trifluoromethyl)phenyl)amino)phenyl)-1,3,4-oxadiazol-2-yl)cyclopropyl)methanol], < 100 nM.

The assay is the same for the next values; noted with them: Homo sapiens, HEK-293T; […]; 24-hr incubation; top concentration 3 μM; read-out: Firefly Luciferase IC50.
In the case of `CS(=O)(=O)Nc1nnc(-c2ccccc2Nc2ccc(C(F)(F)F)cc2)o1` [Compound 38, N-(5-(2-((4-(trifluoromethyl)phenyl)amino)phenyl)-1,3,4-oxadiazol-2-yl)methanesulfonamide], the IC50 lay within 100 to 1000 nM.
